Several values for one entry are separate records, joined by “and”; a condition that tells them apart may be missing. Equal values may be shown once.
How the values were obtained:
Format in all cases: physicochemical
[1] = Macroscopic observation of 1% oily dispersions in phenylethyl benzoate; settings: 1% by weight in phenylethyl benzoate (X-Tend 226), after about one week
Method: (§1) Two micronizations of these compounds 1 and 2 are performed by milling in oily medium (oil: phenylethyl benzoate—X-Tend 226 from ISP) by means of a mill without addition of dispersant, using a Dispermat ball mill.
(§2) • Dispermat AE 06-C1 disperser-mill (Brant Industrie) • Dispersion: slurries containing 17% R056336A and 49% F17845 (difference in oil uptake) ˜3000 rpm ˜15 minutes • Milling under rapid conditions (30 minutes at 4500 rpm), not optimized (water-cooling circuit not operational) with 0.7-1.2 mm […] balls.
Two oily dispersions in phenylethyl benzoate (X-Tend 226) comprising 1% by weight, respectively, of compound 1A or 2A are then prepared.

[2] = UV absorption of the derivatives in DMSO/ethanol; settings: for E1% / εmax: at the λmax of the same block
[3] = Granulometric measurements by SLS (Mastersizer)
Method: as §1, §2
The granulometric results obtained by SLS using a Mastersizer granulometer reveal a very marked difference in particle size between compound 1 and compound 2, with particle sizes d(0.5), respectively, of 0.118 μm as opposed to 851 μm.

Row | macroscopic stability of dispersion [1] | SMILES | λmax [2] | E1% [2] | εmax [2] | particle size d(0.5) ([3]; after milling in phenylethyl benzoate without dispersant, SLS Mastersizer) [μm] | dispersibility in the oil phenylethyl benzoate ([3]; overall conclusion, compared with compound 2)
1 | totally insoluble | CC(C)(C)CC(C)(C)c1cc(Cc2cc(C(C)(C)CC(C)(C)C)cc(-n3nc4ccccc4n3)c2O)c(O)c(-n2nc3ccccc3n2)c1 [Compound 2, methylenebis(benzo-triazolyl)tetramethylbutylphenol] | – | – | – | – | –
2 | – | C[Si](C)(C)COC(=O)c1ccc(Nc2nc(Nc3ccc(C(=O)OC[Si](C)(C)C)cc3)nc(Nc3ccc(C(=O)OC[Si](C)(C)C)cc3)n2)cc1 [Example 1, 2,4,6-tris(methyltrimethyl-silyl 4′-aminobenzoate)-s-triazine] | 314 nm | 1700 | 126 660 | 0.118 | markedly superior dispersibility
3 | – | CCCCOC(=O)c1ccc(Nc2nc(Nc3ccc(C(=O)OC[Si](C)(C)C)cc3)nc(Nc3ccc(C(=O)OC[Si](C)(C)C)cc3)n2)cc1 [Example 2, 2,4-bis(methyltrimethylsilyl 4′-aminobenzoate)-6-(butyl 4″-aminobenzoate)-s-triazine] | 313 nm | 1660 | 104 560 | – | –
4 | – | C[Si](C)(C)COC(=O)c1ccc(Nc2nc(Nc3ccc(C(=O)OC[Si](C)(C)C)c(O)c3)nc(Nc3ccc(C(=O)OC[Si](C)(C)C)c(O)c3)n2)cc1O [Example 3, 2,4,6-tris(methyltrimethyl-silyl 4′-aminosalicylate)-s-triazine] | 326 nm and 300 nm | 1456 and 938 | 107 610 and 74 400 | – | –
5 | – | COc1ccc(-c2nc(Nc3ccc(C(=O)OC[Si](C)(C)C)cc3)nc(Nc3ccc(C(=O)OC[Si](C)(C)C)cc3)n2)cc1 [Example 4, 2,4-bis(methyltrimethylsilyl 4′-aminobenzoate)-6-(para-methoxyphenyl)-s-triazine] | 303 nm | 1313 | 82 700 | – | –
6 | – | COc1ccc(-c2nc(Nc3ccc(C(=O)OC[Si](C)(C)C)c(O)c3)nc(Nc3ccc(C(=O)OC[Si](C)(C)C)c(O)c3)n2)cc1 [Example 5, 2,4-bis(methyltrimethylsilyl 4′-aminosalicylate)-6-(para-methoxyphenyl)-s-triazine] | 329 nm and 316 nm and 298 nm | 927 and 1066 and 1030 | 61 370 and 70 570 and 68 190 | – | –
7 | – | CC12CCC(/C(=C\c3ccc(Nc4nc(Nc5ccc(C(=O)OC[Si](C)(C)C)cc5)nc(Nc5ccc(C(=O)OC[Si](C)(C)C)cc5)n4)cc3)C1=O)C2(C)C (stereo not shown) [Example 6, 2,4-bis(methyltrimethylsilyl 4′-aminobenzoate)-6-(4″-aminobenzylidenecamphor)-s-triazine] | 313 nm and 345 nm | – | – | – | –
8 | – | C[Si](C)(C)CNC(=O)c1ccc(Nc2nc(Nc3ccc(C(=O)NC[Si](C)(C)C)cc3)nc(Nc3ccc(C(=O)NC[Si](C)(C)C)cc3)n2)cc1 [Example 7, 2,4,6-tris(methyltrimethyl-silyl 4′-aminobenzamide)-s-triazine] | 303 nm | 1123 | 83 330 | – | –
